According to patent US12064445B2, “Cytarabine conjugates for cancer therapy” (Biosight Ltd., priority 2015, dated 2024):
Where two headings read alike, the source gives them in different places.

Legend:
[1] = system: RPMI8226 (Human myeloma); experiment: MTT assay, IC50 in tumor cell lines; format: cell-based; conditions: RPMI-8226, RPMI8226, 72 hr
Protocol: The effect of Astarabine® on different cell lines was evaluated. Briefly, various cell lines were obtained from ATCC or ECACC. Hematological cells were grown in RPMI medium containing 10-20% FBS and 1% glutamine. Solid tumor cells were grown in DMEM medium containing 10-20% FBS and 1% glutamine. Cells were seeded into 96-well plates, 50,000 cells/ml, 0.2 ml per well. […] The study was conducted in triplicates, PBS was used as control. Plates were incubated for 72 hr at 37° C., 5% CO2. At the end of the exposure period, a MTT assay using the MTT reagent [3-(4,5-dimethylthiazol-2-yl)-2,5-diphenyltetrazolium bromide] was performed. MTT was added to each well at a concentration of 5 mg/ml in a volume of 0.02 ml. Plates were incubated at 37° C. for 3 h. The plates were centrifuged at 3500 rpm for 5 minutes and the supernatant was aspired. The pellets which contained MTT crystals were each dissolved in 0.2 ml DMSO. Absorbance was determined using ELISA reader at a wavelength of 570 nm.

[2] = system: AML and ALL patients; experiment: Phase I/IIa open-label clinical study in AML and ALL patients; format: in vivo, human
Protocol: Phase I/IIa, open-label, uncontrolled, single-center study enrolled patients of 18 or more years of age with relapsed or refractory acute leukemia or those unfit for intensive therapy, as judged by the treating physician. The study was approved by the Rambam IRB (approval #0384-11).
Patients were enrolled into 4 Astarabine® escalating dose cohorts, each included 3 patients. Treatment was administered as a 1-hour single daily infusion for 6 consecutive days.
Astarabine® doses for each infusion: • For age ≤50 years: 0.5 g/m^2, 1.5 g/m^2, 3 g/m^2, 4.5 g/m^2 • For age >50 years: 0.3 g/m^2, 0.8 g/m^2, 1.5 g/m^2, 2.3 g/m^2 Results

[3] = system: human leukemia cell lines; experiment: Astarabine metabolite assay in human leukemia cell lines; format: cell-based
[4] = in vivo; conditions: IRC, mouse
Protocol: IRC mice were injected with Astarabine® IV daily for 14 days in a dosage ranging from 400 mg/kg/day to 1200 mg/kg/day. Based on the results of this 14 days intravenous repeated dose study in mice, it was concluded that the IV maximal tolerated dose for Astarabine® is 400 mg/kg/day, administrated for 14 consecutive days. The total administered dose in this group was 5600 mg/kg. All measured parameters such as clinical observations, neurobehavioral observations, motor activity observations, body weight, food consumption, blood analysis and urine analysis, were within the normal range as compared to the non-treated group. Thus, Astarabine® in a concentration of 400 mg/kg/day was considered as the NOAEL (No Adverse Effect Level) in mice. In vivo tolerability/toxicology studies to determine the MTD of a single dose in mice are shown in FIG. 1A and of repeated doses in mice are shown in FIG. 1B.

[5] = system: CCRF-CEM cells; experiment: Human leukemia hollow fiber model transplanted in nude mice (CCRF-CEM); format: in vivo; conditions: 7 consecutive days
Protocol: (§1) Next, the efficacy of Astarabine® in vivo was studied on a human leukemia (Molt-4 and CCRF-CEM cells) hollow fiber model transplanted in nude mice. Astarabine® was injected at doses of 6.25 mg/mouse/day and 25 mg/mouse/day intraperitoneally (IP), daily, for 7 consecutive days; cytarabine was injected at a dose of 1.5 mg/mouse/day. Leukemia cell growth was measured using the MTT assay as described in Example 1 herein above.

[6] = system: Molt-4 cells; experiment: Human leukemia hollow fiber model transplanted in nude mice (Molt-4); format: in vivo; conditions: 7 consecutive days
Protocol: as §1

[7] = Maximal tolerated dose, repeated dose IP (7 days) in mice; format: in vivo; conditions: for MTD at 7 days: TRC, mouse, in vivo
Excerpt: All mice were inspected daily during drug administration and recovery period. Clinical evaluation included mobility observations, food and water consumption. […] Hematology and biochemical blood tests were shown normal at the end of the experiment.

[8] = patient 1, Refractory AML, 0.3 gr/m^2/day
[9] = patient 2, Refractory AML, 0.3 gr/m^2/day
[10] = patient 3, Refractory AML, 0.5 gr/m^2/day
[11] = patient 4, Secondary AML, 0.8 gr/m^2/day
[12] = patient 5, Secondary AML, 0.8 gr/m^2/day
[13] = patient 6, Refractory AML, 0.8 gr/m^2/day
[14] = patient 8, Secondary AML, 1.5 gr/m^2/day
[15] = patient 9, Secondary AML, 1.5 gr/m^2/day
[16] = patient 10, Relapsed AML, 2.3 gr/m^2/day

N[C@@H](CC(=O)Nc1ccn([C@@H]2O[C@H](CO)[C@@H](O)[C@@H]2O)c(=O)n1)C(=O)O [Astarabine®]
IC50 [1]: 33.4 to 144 µM
Adverse effects during or post therapy ([2]; 10 patients, 0.3-2.3 g/m^2/day, 1-hour daily infusion for 6 days, apart from neutropenic fever): No significant adverse effects
Safety and tolerability ([2]; even for patients of 80 or more years of age): safe and very well tolerated
Follow-up in months [2, 8]: 3 months
BM blasts Day 0 ([2]; patient 1, Refractory AML, 0.3 gr/m^2/day x 6 days infusion): 100%
BM blasts Day 14 [2, 8]: 90%
BM blasts Day 30 [2, 8]: 83%
Follow-up in months [2, 9]: 2 months
BM blasts Day 0 [2, 9]: 100%
BM blasts Day 14 [2, 9]: 64%
BM blasts Day 30 [2, 9]: 70%
Follow-up in months [2, 10]: 6 months
BM blasts Day 0 [2, 10]: 90%
BM blasts Day 14 [2, 10]: 37%
BM blasts Day 30 [2, 10]: 60%
Follow-up in months [2, 11]: 4 months
BM blasts Day 14 [2, 11]: 39%
BM blasts Day 30 [2, 11]: 63%
Follow-up in months [2, 12]: 9 months
BM blasts Day 0 [2, 12]: 80%
BM blasts Day 14 [2, 12]: 5%
BM blasts Day 30 [2, 12]: 0%
Follow-up in months [2, 13]: 1 months
BM blasts Day 0 [2, 13]: 85%
BM blasts Day 14 [2, 13]: 100%
BM blasts Day 30 [2, 13]: 100%
Follow-up in months ([2]; patient 7, ALL, 1.5 gr/m^2/day): 7 months
BM blasts Day 0 ([2]; patient 7, ALL, 1.5 gr/m^2/day): 89%
BM blasts Day 14 ([2]; patient 7, ALL, 1.5 gr/m^2/day): 3%
BM blasts Day 30 ([2]; patient 7, ALL, 1.5 gr/m^2/day): 0.2%
Follow-up in months [2, 14]: 6 months
BM blasts Day 0 [2, 14]: 63%
BM blasts Day 14 [2, 14]: 80%
BM blasts Day 30 [2, 14]: 8%
Follow-up in months [2, 15]: 1 months
Outcome [2, 15]: Died
BM blasts Day 0 [2, 15]: 100%
Follow-up in months [2, 16]: 1 months
Outcome [2, 16]: Died
BM blasts Day 0 [2, 16]: 100%
Remission ([2]; patients having acute leukemia, 0.3-2.3 g/m^2/day for 6 days): three out of ten patients
Safety and tolerability ([2]; patients of 75 or more years of age having AML or ALL, daily dose of about 2 g/m^2 or higher): safe and well tolerated
Metabolites detected in cells [3]: detected free cytarabine metabolites
IV maximal tolerated dose ([4]; 14 days): 400 mg/kg/day
NOAEL at 14 days ([4]; iv): 400 mg/kg/day
MTD at 14 days ([4]; iv, 400 mg/kg/day): 5600 mg/kg
Inhibition of growth of CCRF-CEM cells ([5]; 6.25 mg/mouse/day IP): 71.9%
Inhibition of growth of CCRF-CEM cells ([5]; 25 mg/mouse/day IP): 72.0%
Inhibition of growth of Molt-4 cells ([6]; 6.25 mg/mouse/day IP): 76.9%
Inhibition of growth of Molt-4 cells ([6]; 25 mg/mouse/day IP): 82.8%
Gross necropsy ([7]; IP 7 days, 156 to 781 mg/kg/day): no abnormal findings
Hematology and biochemical blood tests ([7]; IP 7 days, 156 to 781 mg/kg/day, end of experiment): normal
MTD at 7 days ([7]; 781 mg/kg/day IP for 7 days, read-out: Accumulative dose at MTD): 5470 mg/kg
MTD at 7 days ([7]; IP for 7 days, read-out: MTD (maximal tolerated dose)): 781 mg/kg/day
